From patent US9108926B2, “Disubstituted 5-fluoro-pyrimidines” (Bayer Intellectual Property GmbH, priority 2011, dated 2015)

Columns and labels:
[1] = target: CDK2/CycE (Homo sapiens, UniProt P24941); test: CDK2/CycE kinase assay (TR-FRET, Method 2)
Source text: CDK2/CycE-inhibitory activity of compounds of the present invention was quantified employing the CDK2/CycE TR-FRET assay as described in the following paragraphs:
Recombinant fusion proteins of GST and human CDK2 and of GST and human CycE, expressed in insect cells (Sf9) and purified by Glutathion-Sepharose affinity chromatography, were purchased from ProQinase GmbH (Freiburg, Germany). As substrate for the kinase reaction biotinylated peptide biotin-Ttds-[sequence] (C-terminus in amid form) was used which can be purchased e.g. form the company JERINI Peptide Technologies (Berlin, Germany).
For the assay 50 nl of a 100 fold concentrated solution of the test compound in DMSO was pipetted into a black low volume 384 well microtiter plate (Greiner Bio-One, Frickenhausen, Germany), 2 μl of a solution of CDK2/CycE in aqueous assay buffer [50 mM Tris/HCl pH 8.0, 10 mM MgCl2, 1.0 mM dithiothreitol, 0.1 mM sodium ortho-vanadate, 0.01% (v/v) Nonidet-P40 (Sigma)] were added and the mixture was incubated for 15 min at 22° C. to allow pre-binding of the test compounds to the enzyme before the start of the kinase reaction. Then the kinase reaction was started by the addition of 3 μl of a solution of adenosine-tri-phosphate (ATP, 16.7 μM=>final conc. in the 5 μl assay volume is 10 μM) and substrate (1.25 μM=>final conc. in the 5 μl assay volume is 0.75 μM) in assay buffer and the resulting mixture was incubated for a reaction time of 25 min at 22° C. The concentration of CDK2/CycE was adjusted depending of the activity of the enzyme lot and was chosen appropriate to have the assay in the linear range, typical concentrations were in the range of 130 ng/mL. The reaction was stopped by the addition of 5 μl of a solution of TR-FRET detection reagents (0.2 μM streptavidine-XL665 [Cisbio Bioassays, Codolet, France] and 1 nM anti-RB(pSer807/pSer811)-antibody from BD Pharmingen [#558389] and 1.2 nM LANCE EU-W1024 labeled anti-mouse IgG antibody [Perkin-Elmer, product no. AD0077]) in an aqueous EDTA-solution (100 mM EDTA, 0.2% (w/v) bovine serum albumin in 100 mM HEPES/NaOH pH 7.0).
The resulting mixture was incubated 1 h at 22° C. to allow the formation of complex between the phosphorylated biotinylated peptide and the detection reagents. Subsequently the amount of phosphorylated substrate was evaluated by measurement of the resonance energy transfer from the Eu-chelate to the streptavidine-XL. Therefore, the fluorescence emissions at 620 nm and 665 nm after excitation at 350 nm was measured in a TR-FRET reader, e.g. a Rubystar (BMG Labtechnologies, Offenburg, Germany) or a Viewlux (Perkin-Elmer). The ratio of the emissions at 665 nm and at 622 nm was taken as the measure for the amount of phosphorylated substrate.

[2] = Caco-2 permeation assay; format: in vitro ADME; details: human, pH 7.2, Caco-2, test compound 2 μM
Protocol: 4. Caco-2 Permeation Assay:
Caco-2 cells (purchased from DSMZ Braunschweig, Germany) were seeded at a density of 4.5×10^4 cells per well on 24 well insert plates, 0.4 μm pore size, and grown for 15 days in DMEM medium supplemented with 10% fetal bovine serum, 1% GlutaMAX (100×, GIBCO), 100 U/mL penicillin, 100 μg/mL streptomycin (GIBCO) and 1% non essential amino acids (100×). Cells were maintained at 37° C. in a humified 5% CO2 atmosphere. Medium was changed every 2-3 day. Before running the permeation assay, the culture medium was replaced by a FCS-free hepes-carbonate transport buffer (pH 7.2). For assessment of monolayer integrity the transepithelial electrical resistance (TEER) was measured. Test compounds were predissolved in DMSO and added either to the apical or basolateral compartment in final concentration of 2 μM in transport buffer. Before and after 2 h incubation at 37° C. samples were taken from both compartments. Analysis of compound content was done after precipitation with methanol by LC/MS/MS analysis. Permeability (Papp) was calculated in the apical to basolateral (A→B) and basolateral to apical (B→A) directions. […] The efflux ratio basolateral (B) to apical (A) was calculated by dividing the Papp B−A by the Papp A−B. In addition the compound recovery was calculated. The following reference compounds were used for the classification of the permeability class: Antipyrine, Pyrazosin, Verapamil, Fluvastatin, Cimetidine, Ranitidine, Atenolol, Sulfasalazine.

[3] = tested on: Caco-2 cells; test: Proliferation assay, Caco-2; format: cell-based; details: Homo sapiens, 96 h; Caco-2, 4 days, crystal violet; read-out: Inhibition of Caco-2 cell proliferation IC50
Protocol: (§1) After 24 hours, the cells of one plate (zero-point plate) were stained with crystal violet (see below), while the medium of the other plates was replaced by fresh culture medium (200 μl), to which the test substances were added in various concentrations (0 μM, as well as in the range of 0.001-10 μM; the final concentration of the solvent dimethyl sulfoxide was 0.5%). The cells were incubated for 4 days in the presence of test substances. Cell proliferation was determined by staining the cells with crystal violet: the cells were fixed by adding 20 μl/measuring point of an 11% glutaric aldehyde solution for 15 minutes at room temperature. After three washing cycles of the fixed cells with water, the plates were dried at room temperature. The cells were stained by adding 100 μl/measuring point of a 0.1% crystal violet solution (pH 3.0). After three washing cycles of the stained cells with water, the plates were dried at room temperature. The dye was dissolved by adding 100 μl/measuring point of a 10% acetic acid solution. […] The change of cell number, in percent, was calculated by normalization of the measured values to the extinction values of the zero-point plate (=0%) and the extinction of the untreated (0 μm) cells (=100%).

[4] = tested on: B16F10 cells; test: Proliferation assay, B16F10; format: cell-based; details: Mus musculus, B16-F10, 96 h; B16F10, 4 days, crystal violet; read-out: Inhibition of B16F10 cell proliferation IC50
Protocol: as §1

[5] = tested on: HeLa cells; test: Proliferation assay, HeLa; format: cell-based; details: Homo sapiens, 96 h, 4 days, crystal violet, read-out: Inhibition of HeLa cell proliferation IC50
Protocol: as §1

[6] = tested on: DU145 cells; test: Proliferation assay, DU145; format: cell-based; details: Homo sapiens, DU-145, 96 h; DU145, 4 days, crystal violet; read-out: Inhibition of DU145 cell proliferation IC50
Protocol: as §1

[7] = tested on: NCI-H460 cells; test: Proliferation assay, NCI-H460; format: cell-based; details: Homo sapiens, 96 h; NCI-H460, 4 days, crystal violet; read-out: Inhibition of NCI-H460 cell proliferation IC50
Protocol: as §1

[8] = tested on: A2780 cells; test: Proliferation assay, A2780; format: cell-based; details: Homo sapiens, 96 h; A2780, 4 days, crystal violet; read-out: Inhibition of A2780 cell proliferation IC50
Protocol: Cultivated tumour cells (HeLa, human cervical tumour cells, ATCC CCL-2; NCI-H460, human non-small cell lung carcinoma cells, ATCC HTB-177; A2780, human ovarian carcinoma cells, ECACC #93112519; DU 145, hormone-independent human prostate carcinoma cells, ATCC HTB-81; HeLa-MaTu-ADR, multidrug-resistant human cervical carcinoma cells, EPO-GmbH Berlin; Caco-2, human colorectal carcinoma cells, ATCC HTB-37; B16F10, mouse melanoma cells, ATCC CRL-6475) were plated at a density of 5,000 cells/well (DU145, HeLa-MaTu-ADR), 3,000 cells/well (NCI-H460, HeLa), 2,500 cells/well (A2780), 1,500 cells/well (Caco-2), or 1,000 cells/well (B16F10) in a 96-well multititer plate in 200 μL of their respective growth medium supplemented 10% fetal calf serum. […] Cell proliferation was determined by staining the cells with crystal violet: the cells were fixed by adding 20 μl/measuring point of an 11% glutaric aldehyde solution for 15 minutes at room temperature. […] The extinction was determined by photometry at a wavelength of 595 nm. The change of cell number, in percent, was calculated by normalization of the measured values to the extinction values of the zero-point plate (=0%) and the extinction of the untreated (0 μm) cells (=100%).

[9] = tested on: HeLa-MaTu-ADR cells; test: Proliferation assay, HeLa-MaTu-ADR; format: cell-based; details: Homo sapiens, 96 h; HeLa-MaTu-ADR, 4 days, crystal violet; read-out: Inhibition of HeLa-MaTu-ADR cell proliferation IC50
Protocol: as §1

**Q.** Which IC50 [1] does the source give for `COc1cc(F)ccc1-c1nc(Nc2cc(F)cc(CS(C)(=O)=O)c2)ncc1F` [Example 12, 5-Fluoro-4-(4-fluoro-2-methoxyphenyl)-N-{3-fluoro-5-[(methylsulfonyl)methyl]phenyl}pyrimidin-2-amine] here?
**A.** 0.2 µM

**Q.** And the Papp A→B at 2 h, 2 μM ([2]; apical to basolateral, read-out: Papp A-B (Mari))?
**A.** 9.7 ×10⁻⁶ cm/s

**Q.** What about the Papp B→A at 2 h, 2 μM ([2]; basolateral to apical, read-out: Papp B-A (Mari)) of the same compound?
**A.** 3.1 ×10⁻⁶ cm/s

**Q.** And the IC50 [3]?
**A.** 0.38 µM

**Q.** What about the IC50 [4] of the same compound?
**A.** 0.36 µM

**Q.** What about the IC50 [5] of the same compound?
**A.** 0.11 µM

**Q.** And the IC50 [6]?
**A.** 0.31 µM

**Q.** And the IC50 [7]?
**A.** 0.36 µM

**Q.** And the IC50 [8]?
**A.** 0.11 µM

**Q.** What about the IC50 [9] of the same compound?
**A.** 0.12 µM
